In patent US20240252488A1 (KOREA RESEARCH INSTITUTE OF CHEMICAL TECHNOLOGY, priority 2020, published 2024):

Tests used:
MLKL [1] = molecular target: T1, MLKL (Homo sapiens, UniProt Q8NB16); test: Measurement of binding affinity with MLKL receptor (competitive binding assay, Kd); parameters: made in house; host or cells: HEK 293 cell line (T7 phage in E. coli BL21-derived host is also described)
T1 sequence (Q8NB16 1-471): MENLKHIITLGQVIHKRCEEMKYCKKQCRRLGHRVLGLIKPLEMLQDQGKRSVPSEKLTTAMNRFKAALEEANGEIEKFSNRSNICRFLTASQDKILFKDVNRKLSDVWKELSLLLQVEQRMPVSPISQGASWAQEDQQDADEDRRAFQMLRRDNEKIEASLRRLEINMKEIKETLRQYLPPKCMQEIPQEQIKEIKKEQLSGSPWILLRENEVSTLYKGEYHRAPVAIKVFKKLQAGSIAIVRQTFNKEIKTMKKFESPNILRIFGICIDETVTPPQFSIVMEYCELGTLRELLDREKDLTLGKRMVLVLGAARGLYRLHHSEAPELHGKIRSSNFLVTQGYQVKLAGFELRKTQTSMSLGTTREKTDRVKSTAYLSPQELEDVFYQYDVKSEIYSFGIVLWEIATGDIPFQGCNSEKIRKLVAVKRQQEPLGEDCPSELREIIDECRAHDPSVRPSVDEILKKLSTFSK
Outline: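 Kd comes from a bead-based competition format: compound-dependent loss of DNA-tagged, HEK 293-expressed MLKL capture, measured as eluate kinase by qPCR. Final DMSO is 0.9%.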

FADD−/− Jurkat cells = test: Necroptosis inhibition assay, TNF-α-induced necroptosis (CellTiter-Glo 2.0); format: cell-based, human; conditions: TNF-α 15 ng/mL; for Necroptosis inhibition assay (Rescue %) 1 μM: compound 1 μM; for Necroptosis inhibition assay (Rescue %) 10 μM: compound 10 μM
Outline: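 Necroptosis induced by 15 ng/mL TNF-α (final) for 20–24 h at 37 °C, after a 30 min room-temperature pretreatment of FADD-deficient Jurkat cells with 0.1, 1 or 10 μM compound. ATP-based luminescence gave viability, from which inhibition rate and cytotoxicity were derived.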

MLKL [2] = molecular target: T1, MLKL; test: MLKL degradation assay in HepG2 cell line (western blot); format: cell-based; parameters: endogenous in cells; host or cells: HepG2 or HaCaT; conditions: cell line not given; for Degradation assay (Degradation %) 1 μM: compound 1 μM; for Degradation assay (Degradation %) 10 μM: compound 10 μM
Outline: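 Western blot chemiluminescence of MLKL in equal-protein lysates (10-15 μg, BCA-adjusted). Before lysis, HepG2 cells were exposed to 1 or 10 μM (final) test compound for 20-24 h at 37 °C.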

Kd (MLKL [1]) [nM]	Degradation assay (Degradation %) 1 μM (MLKL [2]) [%]	Degradation assay (Degradation %) 10 μM (MLKL [2]) [%]	SMILES	Necroptosis inhibition assay (Rescue %) 1 μM (FADD−/− Jurkat cells) [%]	Necroptosis inhibition assay (Rescue %) 10 μM (FADD−/− Jurkat cells) [%]	Necroptosis inhibition assay (Rescue %) 1 μM (FADD−/− Jurkat cells; FADD−/− Jurkat cells) [%]	Necroptosis inhibition assay (Rescue %) 10 μM (FADD−/− Jurkat cells; FADD−/− Jurkat cells) [%]
0.42	81.82	81.68	Nc1ncc(-c2cnn(C3CCN(CCCN4CCN(C(=O)CCc5cccc6c5C(=O)N(C5CCC(=O)NC5=O)C6=O)CC4)CC3)c2)nc1C(=O)O[C@@H](C(=O)Nc1ccc(F)cc1)c1ccccc1 (stereo partly drawn) [TDH-382, (R)-2-((4-fluorophenyl)amino)-2-oxo-1-phenylethyl 3-amino-6-(1-(1-(3-(4-(3-(2-(2,6-dioxopiperidin-3-yl)-1,3-dioxoisoindolin-4-yl)propanoyl)piperazin-1-yl)propyl)piperidin-4-yl)-1H-pyrazol-4-yl)pyrazine-2-carboxylate]	59.24	22.12		
2.9	85.02	84.91	Nc1ncc(-c2cnn(C3CCN(CC4CN(C(=O)C5CCN(c6cccc7c6C(=O)N(C6CCC(=O)NC6=O)C7=O)CC5)CCO4)CC3)c2)nc1C(=O)OC(C(=O)Nc1ccc(F)cc1)c1ccccc1 (stereo not shown) [TDH-304, 2-((4-fluorophenyl)amino)-2-oxo-1-phenylethyl 3-amino-6-(1-(1-((4-(1-(2-(2,6-dioxopiperidin-3-yl)-1,3-dioxoisoindolin-4-yl)piperidine-4-carbonyl)morpholin-2-yl)methyl)piperidin-4-yl)-1H-pyrazol-4-yl)pyrazine-2-carboxylate]	38.26	35.22		
75	14.8	21.54	Nc1ncc(-c2cnn(C3CCN(CC4CCN(C(=O)COc5cccc6c5C(=O)N(C5CCC(=O)NC5=O)C6=O)CC4)CC3)c2)nc1C(=O)N[C@@H](C(=O)Nc1ccc(F)cc1)c1ccccc1 (stereo partly drawn) [TDH-186, 3-amino-6-(1-(1-((1-(2-((2-(2,6-dioxopiperidin-3-yl)-1,3-dioxoisoindolin-4-yl)oxy)acetyl)piperidin-4-yl)methyl)piperidin-4-yl)-1H-pyrazol-4-yl)-N-((R)-2-((4-fluorophenyl)amino)-2-oxo-1-phenylethyl)pyrazine-2-carboxamide]	35.73	35.74		
1.9	81.59	58.63	Nc1ncc(-c2cnn(C3CCN(CC4CCN(C(=O)CCc5cccc6c5CN(C5CCC(=O)NC5=O)C6=O)CC4)CC3)c2)nc1C(=O)O[C@@H](C(=O)Nc1ccc(F)cc1)c1ccccc1 (stereo partly drawn) [TDH-384, (R)-2-((4-fluorophenyl)amino)-2-oxo-1-phenylethyl 3-amino-6-(1-(1-((1-(3-(2-(2,6-dioxopiperidin-3-yl)-1-oxoisoindolin-4-yl)propanoyl)piperidin-4-yl)methyl)piperidin-4-yl)-1H-pyrazol-4-yl)pyrazine-2-carboxylate]	39.08	9.67		
6.1	88.76	89.67	Nc1ncc(-c2cnn(C3CCN(C(=O)COC4CCN(C(=O)CNc5cccc6c5C(=O)N(C5CCC(=O)NC5=O)C6=O)CC4)CC3)c2)nc1C(=O)O[C@@H](C(=O)Nc1ccc(F)cc1)c1ccccc1 (stereo partly drawn) [TDH-395, (R)-2-((4-fluorophenyl)amino)-2-oxo-1-phenylethyl 3-amino-6-(1-(1-(2-((1-((2-(2,6-dioxopiperidin-3-yl)-1,3-dioxoisoindolin-4-yl)glycyl)piperidin-4-yl)oxy)acetyl)piperidin-4-yl)-1H-pyrazol-4-yl)pyrazine-2-carboxylate]	34.73	37.15		
0.54	93.13	86.31	Nc1ncc(-c2cnn(C3CCN(CCC4CCN(C(=O)CCc5cccc6c5C(=O)N(C5CCC(=O)NC5=O)C6=O)CC4)CC3)c2)nc1C(=O)O[C@@H](C(=O)Nc1ccc(F)cc1)c1ccccc1 (stereo partly drawn) [TDH-376, (R)-2-((4-fluorophenyl)amino)-2-oxo-1-phenylethyl 3-amino-6-(1-(1-(2-(1-(3-(2-(2,6-dioxopiperidin-3-yl)-1,3-dioxoisoindolin-4-yl)propanoyl)piperidin-4-yl)ethyl)piperidin-4-yl)-1H-pyrazol-4-yl)pyrazine-2-carboxylate]	76.20	30.33		
0.44	93.09		COc1ccc(C(=O)N2CCC3(CC2)CC(N2CCC(CN4CCC(n5cc(-c6cnc(N)c(C(=O)O[C@@H](C(=O)Nc7ccc(F)cc7)c7ccccc7)n6)cn5)CC4)CC2)C3)cc1N1CCC(=O)NC1=O [TDH-503, (R)-2-((4-fluorophenyl)amino)-2-oxo-1-phenylethyl 3-amino-6-(1-(1-((1-(7-(3-(2,4-dioxotetrahydropyrimidin-1(2H)-yl)-4-methoxybenzoyl)-7-azaspiro[3.5]nonan-2-yl)piperidin-4-yl)methyl)piperidin-4-yl)-1H-pyrazol-4-yl)pyrazine-2-carboxylate]			94.80	14.61
0.42	79.04	81.95	Nc1ncc(-c2cnn(C3CCN(CCCN4CCN(C(=O)CCc5ccc6c(c5)C(=O)N(C5CCC(=O)NC5=O)C6=O)CC4)CC3)c2)nc1C(=O)O[C@@H](C(=O)Nc1ccc(F)cc1)c1ccccc1 (stereo partly drawn) [TDH-383, (R)-2-((4-fluorophenyl)amino)-2-oxo-1-phenylethyl 3-amino-6-(1-(1-(3-(4-(3-(2-(2,6-dioxopiperidin-3-yl)-1,3-dioxoisoindolin-5-yl)propanoyl)piperazin-1-yl)propyl)piperidin-4-yl)-1H-pyrazol-4-yl)pyrazine-2-carboxylate]	46.33	25.19		
0.26	92.48	90.67	COc1ccc(C(=O)N2CCC(CN3CCC(CN4CCC(n5cc(-c6cnc(N)c(C(=O)O[C@@H](C(=O)Nc7ccc(F)cc7)c7ccccc7)n6)cn5)CC4)CC3)CC2)cc1N1CCC(=O)NC1=O [TDH-477, (R)-2-((4-fluorophenyl)amino)-2-oxo-1-phenylethyl 3-amino-6-(1-(1-((1-((1-(3-(2,4-dioxotetrahydropyrimidin-1(2H)-yl)-4-methoxybenzoyl)piperidin-4-yl)methyl)piperidin-4-yl)methyl)piperidin-4-yl)-1H-pyrazol-4-yl)pyrazine-2-carboxylate]			62.38	21.83
8.1	70.94	57.99	Nc1ncc(-c2cnn(C3CCN(CCC4CCN(c5ccc6nnn(C7CCC(=O)NC7=O)c(=O)c6c5)CC4)CC3)c2)nc1C(=O)OC(C(=O)Nc1ccc(F)cc1)c1ccccc1 (stereo not shown) [TDH-295, 2-((4-fluorophenyl)amino)-2-oxo-1-phenylethyl 3-amino-6-(1-(1-(2-(1-(3-(2,6-dioxopiperidin-3-yl)-4-oxo-3,4-dihydrobenzo[d][1,2,3]triazin-6-yl)piperidin-4-yl)ethyl)piperidin-4-yl)-1H-pyrazol-4-yl)pyrazine-2-carboxylate]	63.46	37.73		
